Laboratory results reported in US9155729B2, “Thiazolidinedione analogues” (Metabolic Solutions Development Company, LLC, priority 2006, dated 2015).
Marks after values point to notes of the source that are not given here.

Columns and labels:
Diabetic KKAy mice [1] = experiment: Glucose and insulin in diabetic KKAy mice dosed 7 days with compound 1 or rosiglitazone; type: in vivo; settings: 20 mg rosiglitazone or 100 mg/kg compound 1, fasting, 8th day, mean, 8 mice/group
Protocol: (§1) KKAy mice were dosed for 7 days with 20 mg rosigltiazone (positive control) and 100 mg/kg of compound 1 in suspension (1% sodium methyl carboxymethyl cellulose/0.01% Tween 80). On the 8th day, fasting, glucose, and insulin were measured, see Table D. The liver was isolated was used to measure hepatic mRNA for aP2, a biomarker for PPARγ activation in vivo. […] Data are mean and (SEM) for 8 mice/group.

PPARγ = biological target: T1, PPARγ (Homo sapiens, UniProt P37231); experiment: Commercial PPARγ binding assay (Invitrogen, PPAR-LBD/Fluormone PPAR Green complex); settings: for PPARγ binding signal (fluorescence polarization, Fluormone PPAR Green displacement): mean of three experiments; for Binding to PPARγ (in words): referring to FIG. 1 and Table B
T1 construct: purchased Invitrogen Corporation, Carlsbad, Calif
T1 sequence (P37231 238-503 limits assumed): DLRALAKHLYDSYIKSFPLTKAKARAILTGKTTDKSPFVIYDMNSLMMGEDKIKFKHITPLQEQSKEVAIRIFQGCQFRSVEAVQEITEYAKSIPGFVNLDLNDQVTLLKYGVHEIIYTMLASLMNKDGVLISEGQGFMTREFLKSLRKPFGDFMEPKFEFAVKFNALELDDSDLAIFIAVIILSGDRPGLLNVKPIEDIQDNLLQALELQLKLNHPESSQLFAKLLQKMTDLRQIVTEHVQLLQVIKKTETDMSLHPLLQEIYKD
Protocol: The ability of several exemplary compounds of the present invention, shown in Table A, to bind to PPARγ was measured using a commercial binding assay (Invitrogen Corporation, Carlsbad, Calif.) that measures the test compounds ability to bind with PPAR-LBD/Fluormone PPAR Green complex. These assays were performed on three occasions with each assay using four separate wells (quadruplicate) at each concentration of tested compound. The data are mean and SEM of the values obtained from the three experiments. […] Compounds were added at the concentrations shown, which range from 0.1-100 micromolar.

Diabetic KKAy mice [2] = experiment: Glucose, insulin and triglyceride in diabetic KKAy mice, 4 days oral dosing; type: in vivo; settings: for Glucose / Insulin / Triglycerides: 93 mg/kg orally for 4 days, fasted, blood approx. 18 hours after last dose, mean and SEM, N=6-12
Protocol: The insulin sensitizing and antidiabetic pharmacology are measured in the KKA^Y mice as previously reported [Hofmann, C., Lomez, K., and Colca, J. R. (1991). Glucose transport deficiency corrected by treatment with the oral anti-hyperglycemic agent Pioglitazone. Endocrinology, 129:1915-1925.]. Compounds are formulated in 1% sodium carboxy methylcellulose, and 0.01% tween 20 and dosed daily by oral gavage.
Compounds were formulated by suspension and orally dosed to KKAy mice at 93 mg/kg for 4 days. The compounds were first dissolved in DMSO and then placed into aqueous suspension containing 7-10% DMSO, 1% sodium methylcarboxycellulose, and 0.01% Tween 20. On the fifth day, the mice were fasted and blood samples were obtained approximately 18 hours after the last dose. The parameters were measured by standard assay methods. Data are mean and SEM N=6-12 mice.

aP2 = experiment: Hepatic mRNA for aP2, biomarker for PPARγ activation in vivo, KKAy mice
Protocol: as §1

SMILES	Glucose (Diabetic KKAy mice [1]) [mg/dL]	Insulin (Diabetic KKAy mice [1]) [ng/mL]	PPARγ binding signal (fluorescence polarization, Fluormone PPAR Green displacement) (PPARγ; 1 μM compound)	PPARγ binding signal (fluorescence polarization, Fluormone PPAR Green displacement) (PPARγ; 3 μM compound)	PPARγ binding signal (fluorescence polarization, Fluormone PPAR Green displacement) (PPARγ; 10 μM compound)	PPARγ binding signal (fluorescence polarization, Fluormone PPAR Green displacement) (PPARγ; 50 μM compound)	PPARγ binding signal (fluorescence polarization, Fluormone PPAR Green displacement) (PPARγ; 100 μM compound)	PPARγ binding signal (fluorescence polarization, Fluormone PPAR Green displacement) (PPARγ; .1 μM compound)	PPARγ binding signal (fluorescence polarization, Fluormone PPAR Green displacement) (PPARγ; .3 μM compound)	Binding to PPARγ (in words) (PPARγ)	Glucose (Diabetic KKAy mice [2])	Insulin (Diabetic KKAy mice [2])	Triglycerides (Diabetic KKAy mice [2])	aP2 (relative expression in liver) (aP2; KKAy mice dosed 7 days, 20 mg rosiglitazone or 100 mg/kg compound 1, hepatic mRNA, mean, 8 mice/group)	Activation of PPARγ in vivo as compared to the positive control (in words) (aP2; KKAy mice, hepatic aP2 mRNA, 100 mg/kg for 7 days)	Effectiveness at lowering glucose, insulin and triglyceride levels / antidiabetic activity (in words) (Diabetic KKAy mice [2]; Table C)
CN(CCOc1ccc(CC2SC(=O)NC2=O)cc1)c1ccccn1 (centres unmarked) [Rosiglitazone, reference compound]	320	3.4	–	–	–	–	–	–	–	–	–	–	–	–	–	–
CCc1ccc(C(=O)COc2ccc(CC3SC(=O)NC3=O)cc2)nc1 (centres unmarked) [Compound 1]	291	1.9	223	228	207	174	170	227	232	particularly poor binders	402 +/− 25* mg/dl	7.6 +/− 1.9* ng/ml	115 +/− 18* mg/dl	5.7	little activation of PPARγ	–
CCc1ccc([C@@H](O)COc2ccc(CC3SC(=O)NC3=O)cc2)nc1 (some centres unmarked) [Compound 2]	–	–	238	236	223	162	136	231	233	particularly poor binders	428 +/− 17* mg/dl	5.7 +/− 1.6* ng/ml	187 +/− 29* mg/dl	–	–	equivalent antidiabetic activity
